Results: paper PMC9158366, “The inhibition of tamoxifen on UGT2B gene expression and enzyme activity in rat liver contribute to the estrogen homeostasis dysregulation” (BMC Pharmacology & Toxicology, 2022)

Biological target: T1, UGT2B7 (Homo sapiens, UniProt P16662)
T1 sequence (P16662 24-529): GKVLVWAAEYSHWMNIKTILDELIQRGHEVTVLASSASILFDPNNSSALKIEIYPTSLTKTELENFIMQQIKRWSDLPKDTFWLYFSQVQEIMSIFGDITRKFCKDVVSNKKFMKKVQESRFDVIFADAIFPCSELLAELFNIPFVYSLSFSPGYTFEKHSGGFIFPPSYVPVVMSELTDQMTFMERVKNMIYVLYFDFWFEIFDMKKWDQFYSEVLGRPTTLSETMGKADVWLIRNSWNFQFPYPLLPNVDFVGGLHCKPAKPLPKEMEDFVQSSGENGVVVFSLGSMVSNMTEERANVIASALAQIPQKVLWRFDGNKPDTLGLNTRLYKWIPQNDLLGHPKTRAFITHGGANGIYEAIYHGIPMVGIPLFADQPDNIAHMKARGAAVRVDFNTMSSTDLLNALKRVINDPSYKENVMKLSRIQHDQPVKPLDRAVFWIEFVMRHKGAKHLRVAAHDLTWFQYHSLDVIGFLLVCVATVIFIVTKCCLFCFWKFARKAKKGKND
Test: inhibition of naloxone glucuronidation in human liver microsomes, HPLC
Type: biochemical

**Q.** For CC/C(=C(\c1ccccc1)c1ccc(OCCN(C)C)cc1)c1ccccc1 [tamoxifen], which Ki is on record?
**A.** 37.7 µM
